Data on 9 molecules can be found in publication PMC10786919, “Design-rules for stapled peptides with in vivo activity and their application to Mdm2/X antagonists” (Nature Communications, 2024).

The structures appear in SMILES notation. In brackets after ≈: the same amount, converted by molar mass. Where two headings read alike, the source gives them in different places. Positions of bridges follow the written chain, without caps; N, C: chain ends. Non-standard residues stand in square brackets, D forms with d. Residues, ends and D or L forms follow the SMILES beside them. Lys(N3) = [N-]=[N+]=NCCCC[C@H](N)C(=O)O; R8 = C=CCCCCCC[C@@](C)(N)C(=O)O; Cba = N[C@@H](CC1CCC1)C(=O)O; S5 = C=CCCC[C@](C)(N)C(=O)O; βAla = NCCC(=O)O

Data set [1] can be described thus: Experimental LogD (partition coefficient). The conditions noted are these: not stated, Partition Coeff LogD.
Data set [2] can be described thus: Solubility assay (kinetic solubility, PBS pH 7). It is filed as physicochemical. The conditions noted are these: for solubility kinetic: pH 7, aqueous buffer, kinetic from dmso stock, read-out: Solubility. In outline: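 Reference standards were made by diluting the 10 mM stock to 100 µM in acetonitrile:methanol:DMSO 10:80:10. Solubility in µM was calculated as the sample peak area divided by the standard peak area, multiplied by the standard concentration.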

The test system of data set [3] is HCT116 cells. The data set is described as follows: Lactate dehydrogenase (LDH) release assay. It is filed as cell-based. In a few lines: (§1)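 LDH release, fluorometric membrane-integrity read-out; HCT116 with stable p53-responsive β-lactamase reporter; 8000 cells/well; 0.5% DMSO final; geometric mean, n≥3 biological replicates.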
Data set [4] is described as follows: Lactate dehydrogenase (LDH) release assay. Type of data set: cell-based. In outline: as §1
Data set [5] in a line: physchem.
Where [6] appears, read: 0% FBS 4Hr, read-out: LDH: Cytotoxicity assay EC50.

What is called logD is lipophilicity at a set pH, counting ionised and neutral species. In general, EC50 refers to the concentration needed to bring the measured effect to its halfway point. Take `CC(=O)N[C@@H](CCCCN=[N+]=[N-])C(=O)NCCC(=O)NC(C)(C)C(=O)N[C@H](C(=O)N[C@@H](Cc1ccccc1)C(=O)N[C@]1(C)CCCCCCC=CCCC[C@@](C)(C(=O)N[C@@H](CO)C(=O)N[C@@H](C)C(=O)N[C@@H](C)C(N)=O)NC(=O)[C@H](CC2CCC2)NC(=O)[C@H](CCC(N)=O)NC(=O)[C@H](C)NC(=O)[C@H](Cc2c[nH]c3ccccc23)NC(=O)[C@H](Cc2ccc(O)cc2)NC(=O)[C@H](CCC(=O)O)NC1=O)[C@@H](C)O` [MP-168]: in data set [1], the logD is 2.81. In addition, the solubility kinetic in data set [2] (pH 7, PBS) is 79.5 µM (≈ 154 µg/mL). Also, the figures for the “LDH: Cytotoxicity assay % Effect” value in data set [3] (0% FBS 4Hr) and in data set [3] (0% FBS 16Hr) were 4.017% and 11.59%, respectively. For the same molecule, in data set [4] (setting [6]), the EC50 was above 50 µM. The EPSA in data set [5] was 228 A^2.
The molecule `CC(=O)N[C@@H](CC(C)C)C(=O)N[C@@H](Cc1c[nH]cn1)C(=O)N[C@@H](Cc1ccccc1)C(=O)N[C@]1(C)CCCCCCC=CCCC[C@@](C)(C(=O)N[C@@H](CO)C(=O)N[C@@H](C)C(=O)N[C@@H](C)C(N)=O)NC(=O)[C@H](CC2CCC2)NC(=O)[C@H](CC(C)C)NC(=O)[C@H](CCC(N)=O)NC(=O)[C@H](Cc2c[nH]c3ccccc23)NC(=O)[C@H](Cc2ccc(O)cc2)NC(=O)[C@H](CCC(=O)O)NC1=O` [MP-198, ATSP-7041 (T2H)] (Ac-LHF[R8]EYWQL[Cba][S5]SAA-NH2; staple 4-11) came in with a logD in data set [1] of 2.81. In addition, the solubility kinetic in data set [2] (pH 7, PBS) was 25 µM (≈ 45.6 µg/mL). Further, the “LDH: Cytotoxicity assay % Effect” value in data set [3] (0% FBS 4Hr) is 2.825%; in data set [3] (0% FBS 16Hr), -3.86%. In data set [4] (setting [6]), the EC50 was above 50 µM. Further, in data set [5], the EPSA worked out at 209 A^2.
As to `CC(=O)N[C@@H](CC(C)C)C(=O)N[C@H](C(=O)N[C@@H](Cc1ccccc1)C(=O)N[C@]1(C)CCCCCCC=CCCC[C@@](C)(C(=O)N[C@@H](CO)C(=O)N[C@@H](C)C(=O)N[C@@H](C)C(N)=O)NC(=O)[C@H](CC2CCC2)NC(=O)[C@H](CC(C)C)NC(=O)[C@H](CCC(N)=O)NC(=O)[C@H](Cc2c[nH]c3ccccc23)NC(=O)[C@H](Cc2ccc(O)cc2)NC(=O)[C@H](CCCNC(=N)N)NC1=O)[C@@H](C)O` [MP-193] (Ac-LTF[R8]RYWQL[Cba][S5]SAA-NH2; staple 4-11), in data set [1], the logD is 3.26. Besides, the solubility kinetic in data set [2] (pH 7, PBS) came out at 2 µM (≈ 3.63 µg/mL). In addition, the “LDH: Cytotoxicity assay % Effect” value in data set [3] is given as 58.33%. In addition, the EC50 in data set [4] (LDH: Cytotoxicity assay EC50) is above 50 µM. The EPSA in data set [5] came to 207 A^2.
Molecule `CC(=O)N[C@@H](CC(C)C)C(=O)N[C@@H](CCCNC(=N)N)C(=O)N[C@@H](Cc1ccccc1)C(=O)N[C@]1(C)CCCCCCC=CCCC[C@@](C)(C(=O)N[C@@H](CO)C(=O)N[C@@H](C)C(=O)N[C@@H](C)C(N)=O)NC(=O)[C@H](CC2CCC2)NC(=O)[C@H](CC(C)C)NC(=O)[C@H](CCC(N)=O)NC(=O)[C@H](Cc2c[nH]c3ccccc23)NC(=O)[C@H](Cc2ccc(O)cc2)NC(=O)[C@H](CCC(=O)O)NC1=O` [MP-1192] (Ac-LRF[R8]EYWQL[Cba][S5]SAA-NH2; staple 4-11) displayed a logD in data set [1] of 2.79. In data set [2] (pH 7, PBS), the solubility kinetic was found to be 3 µM (≈ 5.53 µg/mL). In data set [4] (LDH: Cytotoxicity assay EC50), this molecule displayed an EC50 above 50 µM. This molecule gave an EPSA in data set [5] of 220 A^2.
In the case of `CC(=O)N[C@@H](CC(C)C)C(=O)N[C@H](C(=O)N[C@@H](Cc1ccccc1)C(=O)N[C@]1(C)CCCCCCC=CCCC[C@@](C)(C(=O)N[C@@H](Cc2c[nH]cn2)C(=O)N[C@@H](C)C(=O)N[C@@H](C)C(N)=O)NC(=O)[C@H](CC2CCC2)NC(=O)[C@H](CC(C)C)NC(=O)[C@H](CCC(N)=O)NC(=O)[C@H](Cc2c[nH]c3ccccc23)NC(=O)[C@H](Cc2ccc(O)cc2)NC(=O)[C@H](CCC(=O)O)NC1=O)[C@@H](C)O` [MP-201, ATSP-7041 (S12H)] (Ac-LTF[R8]EYWQL[Cba][S5]HAA-NH2; staple 4-11), the logD in data set [1] was 2.64. The solubility kinetic in data set [2] (pH 7, PBS) is 5 µM (≈ 9.19 µg/mL). The “LDH: Cytotoxicity assay % Effect” value amounted to 10.92% in data set [3] (0% FBS 4Hr) and 6.91% in data set [3] (0% FBS 16Hr). Also, the EC50 in data set [4] (setting [6]) was above 50 µM. In data set [5], this molecule came in with an EPSA of 218 A^2.
Turning to `CC(=O)N[C@@H](CC(C)C)C(=O)N[C@H](C(=O)N[C@@H](Cc1ccccc1)C(=O)N[C@]1(C)CCCCCCC=CCCC[C@@](C)(C(=O)N[C@@H](CO)C(=O)N[C@@H](C)C(=O)N[C@@H](C)C(N)=O)NC(=O)[C@H](CC2CCC2)NC(=O)[C@H](CC(C)C)NC(=O)[C@H](CCC(N)=O)NC(=O)[C@H](Cc2c[nH]c3ccccc23)NC(=O)[C@H](Cc2ccc(O)cc2)NC(=O)[C@H](Cc2c[nH]cn2)NC1=O)[C@@H](C)O` [MP-199, ATSP-7041 (E5H)] (Ac-LTF[R8]HYWQL[Cba][S5]SAA-NH2; staple 4-11), the logD in data set [1] came to 3.25. Further, in data set [2] (pH 7, PBS), the solubility kinetic turned out to be 5 µM (≈ 8.98 µg/mL). The “LDH: Cytotoxicity assay % Effect” value in data set [3] (0% FBS 4Hr) was 4.035%; in data set [3] (0% FBS 16Hr), 24.3%. Moreover, in data set [4] (setting [6]), the EC50 is above 50 µM. The EPSA in data set [5] was found to be 201 A^2.
For the molecule `CC(=O)N[C@@H](CC(C)C)C(=O)N[C@H](C(=O)N[C@@H](Cc1ccccc1)C(=O)N[C@]1(C)CCCCCCC=CCCC[C@@](C)(C(=O)N[C@@H](CO)C(=O)N[C@@H](C)C(=O)N[C@@H](C)C(N)=O)NC(=O)[C@H](CC2CCC2)NC(=O)[C@H](CCCNC(=N)N)NC(=O)[C@H](CCC(N)=O)NC(=O)[C@H](Cc2c[nH]c3ccccc23)NC(=O)[C@H](Cc2ccc(O)cc2)NC(=O)[C@H](CCC(=O)O)NC1=O)[C@@H](C)O` [MP-195] (Ac-LTF[R8]EYWQR[Cba][S5]SAA-NH2; staple 4-11), the logD in data set [1] was determined as 2.87. Further, the solubility kinetic in data set [2] (pH 7, PBS) came to 3 µM (≈ 5.49 µg/mL). In addition, the EC50 in data set [4] (LDH: Cytotoxicity assay EC50) was above 50 µM. This molecule yielded an EPSA in data set [5] of 216 A^2.
`CC(=O)N[C@@H](CC(C)C)C(=O)N[C@H](C(=O)N[C@@H](Cc1ccccc1)C(=O)N[C@]1(C)CCCCCCC=CCCC[C@@](C)(C(=O)N[C@@H](CO)C(=O)N[C@@H](C)C(=O)N[C@@H](C)C(N)=O)NC(=O)[C@H](CC2CCC2)NC(=O)[C@H](CC(C)C)NC(=O)[C@H](CCCNC(=N)N)NC(=O)[C@H](Cc2c[nH]c3ccccc23)NC(=O)[C@H](Cc2ccc(O)cc2)NC(=O)[C@H](CCC(=O)O)NC1=O)[C@@H](C)O` [MP-194] (Ac-LTF[R8]EYWRL[Cba][S5]SAA-NH2; staple 4-11) showed a logD in data set [1] of 2.87. In addition, in data set [2] (pH 7, PBS), the Solubility result is reported as “Poorly Behaved”. Also, the “LDH: Cytotoxicity assay % Effect” value in data set [3] is recorded as -1.06%. The same molecule returned an EC50 in data set [4] (LDH: Cytotoxicity assay EC50) above 50 µM. This molecule also displayed an EPSA in data set [5] of 210 A^2.
In the case of `CC(=O)N[C@@H](CCCCN=[N+]=[N-])C(=O)NCCC(=O)N[C@@H](CC(C)C)C(=O)N[C@H](C(=O)N[C@@H](Cc1ccccc1)C(=O)N[C@]1(C)CCCCCCC=CCCC[C@@](C)(C(=O)N[C@@H](CO)C(=O)N[C@@H](C)C(=O)N[C@@H](C)C(N)=O)NC(=O)[C@H](CC2CCC2)NC(=O)[C@H](C)NC(=O)[C@H](C)NC(=O)[C@H](Cc2c[nH]c3ccccc23)NC(=O)[C@H](Cc2ccc(O)cc2)NC(=O)[C@H](C)NC1=O)[C@@H](C)O` [MP-964, AZIDE-ATSP-7041 (E5A,Q9A)] (Ac-[Lys(N3)][βAla]LTF[R8]AYWAA[Cba][S5]SAA-NH2; staple 6-13), the logD in data set [1] was determined as 3.77. In addition, the Solubility entry in data set [2] is “P.B”; in data set [2] (pH 7, PBS), “Poorly Behaved”. In addition, the figures for the “LDH: Cytotoxicity assay % Effect” value in data set [3] (0% FBS 4Hr), in data set [3] (0% FBS 16Hr) and in data set [3] (10% FBS 4Hr) were 6.293%, 4.09% and 2.881%, respectively. Moreover, the EC50 in data set [4] (setting [6]) is above 50 µM; in data set [4] (10% FBS 4Hr, read-out: LDH: Cytotoxicity assay EC50), above 50 µM. This molecule also gave an EPSA in data set [5] of 204 A^2.
